# Assays:
# [1] = system: healthy human neonatal fibroblasts; experiment: Spheroid culture of healthy human neonatal fibroblasts in coated 96-well round-bottom vessel, microscope observation; format: cell-based; conditions: PS 96-well round-bottom vessel coated with 0.125% solution; 4×10^4 cells/well
# Protocol: To observe the spheroid formation and stem cell induction in healthy human neonatal fibroblasts over time, culture was performed by using a 96-well round-bottom culture vessel. An aqueous solution of the polypeptide represented by formula (1) (0.125%) (cell culture supplement) was added to a commercial polystyrene-made 96-well round-bottom culture vessel (Nunclon Delta 96U Bottom, Thermo Fisher Scientific) at 100 μL/well and allowed to stand at 4° C. for 24 hours. Thereafter, the excess cell culture supplement was removed, and the remaining solution was dried in a dryer at 37° C. for 96 hours to complete coating treatment with the cell culture supplement. Fibroblasts were maintained and cultured in a serum-free medium (Promo Cell; fibroblast basal medium, basic-FGF 5 ng/ml and insulin 2.5 μg/mL). The fibroblasts floating in the medium were seeded in the culture vessel coated with the cell culture supplement at 4×10^4 cells/well/100 μL and cultured at 37° C. under 5% CO2 conditions.
# [2] = system: healthy human adult skin fibroblasts; experiment: Spheroid culture of healthy human adult skin fibroblasts, microscope observation; format: cell-based; conditions: 96-well round-bottom vessel coated with 0.125% solution; uncoated control grew 2D
# Protocol: An aqueous solution of the polypeptide represented by formula (1) (0.125%) (cell culture supplement) was added to a commercial polystyrene-made 96-well round-bottom culture vessel (Nuncion Delta 96U Bottom, Thermo Fisher Scientific) and allowed to stand at 4° C. for 24 hours. The cell culture supplement solution was then removed and the coated cell culture supplement was dried in a dryer at 37° C. for 96 hours to complete the cell culture supplement coating process. Healthy human adult skin fibroblasts (Lonza, normal human dermal fibroblast-adult, referred to as “adult skin fibroblasts” below) were maintained and cultured in a serum-free medium (Fujifilm Wako Pure Chemical Corporation; DMEM/F12 medium, human serum albumin recombinant 0.5 mg/mL, human transferrin recombinant 10 μg/mL, basic-FGF 5 ng/ml, and insulin 2.5 μg/mL). Adult skin fibroblasts floating in 100 μL of the medium were seeded in the 96-well round-bottom culture vessel coated with the cell culture supplement at 2×10^4 cells/well and cultured at 37° C. under 5% CO2 conditions.
# [3] = system: healthy human adult mammary gland epithelial cells; experiment: Spheroid culture of healthy human adult mammary gland epithelial cells, microscope observation; format: cell-based; conditions: culture vessel coated with 0.125% solution; day 2 to day 20; uncoated control grew 2D
# Protocol: An aqueous solution of the polypeptide represented by formula (1) (0.125%) (cell culture supplement) was added to a commercial polystyrene-made 6-well flat-bottom culture vessel (CellBIND, Corning) and to a polystyrene-made 96-well round-bottom culture vessel (Nunclon Delta 96U Bottom, Thermo Fisher Scientific) and allowed to stand at 4° C. for 24 hours.
# The cell culture supplement solution was then removed and the coated cell culture supplement was dried in a dryer at 37° C. for 96 hours to complete the cell culture supplement coating process. Healthy human adult mammary gland epithelial cells (ATCC PCS-600-010, primary mammary epithelial cells, referred to as “mammary gland epithelial cells” below) were maintained and cultured in a serum-free medium (Promo Cell; mammary epithelial cell growth medium, EGF 5 ng/ml, and insulin 2.5 μg/mL). In the culture vessels coated with the cell culture supplement, the mammary gland epithelial cells floating in 2 mL of the medium were seeded at 2×10^6 cells/well (6-well flat-bottom culture vessel) and the mammary gland epithelial cells floating in 100 μL of the medium were seeded at 2×10^4 cells/well (96-well round-bottom culture vessel). The cells of each culture vessel were cultured at 37° C. under 5% CO2 conditions. […]
# HOS-143B cells = experiment: Inhibition of induction of apoptosis, Caspase-3/7 activity assay in spheroids; format: cell-based, human; conditions: U- and V-bottom 96-well plates coated with 0.5% solution diluted 4-fold and 8-fold; day 3 and day 6; concentration-dependent, more pronounced on day 6
# Protocol: An aqueous solution of the polypeptide represented by formula (1) was added in two different concentrations (prepared by diluting a 0.5% solution 4-fold and 8-fold) at 100 μL/well and 200 μL/well respectively to two 96-well cell culture plates with different bottom shapes (plate #163320 with a U-shaped bottom; Corning, NY, USA, and plate #277143 with a V-shaped bottom; Thermo Fisher Scientific, MA, USA) and allowed to stand overnight at 4° C. Thereafter, the excess cell culture supplement was removed, and the remaining solution was dried in a clean bench for about 6 hours to complete the treatment with the cell culture supplement. […] After three days and six days, the apoptosis activity per well was measured by using a Caspase activity assay kit (Apo-ONE Homogeneous Caspase-3/7 Assay kit; Promega, WI, USA). […] Thereafter, 100 μL of the culture fluid was transferred to a black 96-well cell culture plate (#237105; Thermo Fisher Scientific, MA, USA), and the value of fluorescence at 590 nm (excitation light at 560 nm) was measured with a plate reader. The value determined by subtracting the value for reagent-only with no cells (blank value) from a measured value was considered to be the measured value for each day of culture, and the values compared to those of the plate not coated with the aqueous solution of the polypeptide represented by formula (1) (control) were plotted.
substance,measurement,setting,value
(Pro-Hyp-Gly)n [cell culture supplement],spheroid formation,[1],formed a single spheroid
same,spheroid formation,[2],formed spheroids
same,spheroid formation,[3],self-assembled to form spheroids
same,apoptosis (Caspase-3/7 activity) compared with uncoated plate,HOS-143B cells,inhibited
